# Experimental data from US7105307B2, “Compositions and methods for screening for modulators of enzymatic activity” (Cyclacel, Ltd., priority 1997, dated 2006).
# Where no end group is shown, it is not given here. rhodamine = not defined here
# T1: Zip4SF (not fully specified; fluorescent donor label (fluorescein, by analogy with Zip3F) on the single Cys)
# T1 peptide: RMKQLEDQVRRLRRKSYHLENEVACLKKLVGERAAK
# B1: Zip 1 (peptide)
# peptide: HMKQLEDKVEELLSKNYCLENEVRRLRRASFSLQ
# notes: Initial unsuccessful reporter peptide
# B2: Zip4SR (peptide)
# peptide: RMKQLEDQVRRLRRKSYHLENEVAC(rhodamine)LKKLVGERAAK
# modifications: reading uncertain
# notes: the labelling of Zip4S itself is not spelled out
# B3: Zip 2 (peptide)
# peptide: RRIRRASIDKVEELKSKNYCLENEVARLKKLVGER
# notes: Initial unsuccessful reporter peptide; also called Zip2s
# Experiments:
# [1] = Circular dichroism spectra and thermal denaturation of coiled-coil peptides; assay type: physicochemical
# Method: The circular dichroism (measured in units of ellipticity) of proteins at 222 nm provides a measure of the amount of α-helix present in the structure, with a large, negative ellipticity indicting a high level of helicity. The coiled-coil has a distinctive α-helical CD spectrum with minima at 222 nm and 208 nm (O'Shea et al., 1989, Science, 243: 538–542). […] In all experiments described herein, peptide concentration was determined by tyrosine absorbance at 280 nm in 6M GuHCl. […] It is clear that this leucine zipper peptide began to unfold at around 35° C. and was completely unfolded by 70° C.
# As in Example 1, circular dichroism was used to assess the coiled-coil structure of the Zip4 polypeptides and the disruption of that structure by phosphorylation. […] This was confirmed by the CD spectra of Zip4S and Zip4SP at 1° C. (FIG. 12).
# The coiled-coil motif has a characteristic CD spectrum. As described above, measurement of circular dichroism is useful to distinguish monomeric polypeptides from oligomers and to assess the stability of the structure present, although the technique cannot give information regarding the number of monomers making up the coiled-coil structure. […] Importantly, these peptides shown only have 4.5 leucine zipper heptads, and the incomplete nature of the final heptad is likely to compromise the stability of the coiled-coil structure.
# PKA [2] = assay: Timecourse of phosphorylation of peptides by PKA (32P-ATP); assay type: biochemical; conditions: 0.2 mM ATP, pH 7.0
# Method: Peptides (0.01–1.0 μM) are phosphorylated by purified c-PKA in 50 mM Histidine buffer pH 7.0, 5 mM MgSO4, 1 mM EGTA, 0.1–1.0 μM c-PKA, and 0.2 mM [^32P] γ-ATP (specific activity ˜2Bq/pmol) at 30–37° C. for periods of time ranging from 0 to 60 minutes. Where the chemistry of the peptide is appropriate (i.e. having a basic charge) the phosphopeptide is captured on a cation exchange filter paper (e.g. phosphocellulose P81 paper; Whatman), and reactants are removed by extensive washing in 1% phosphoric acid (see Casnellie, 1991, Methods Enzymol., 200: 115–120). Alternatively, phosphorylation of samples is terminated by the addition of SDS-sample buffer (Laemmli, 1970, Nature, 227: 680–685) and the samples analysed by SDS-PAGE electrophoresis, autoradiography and scintillation counting of gel pieces.
# A timecourse of phosphorylation of these peptides by PKA was run in 50 mM histidine/HCl (pH 7.0), 5 mM MgSO4, 5 mM NaF, 0.05 mM EGTA, 120 mM KCl with 0.2 mM ATP (30.9 cpm/pmol ^32P-ATP) and 0.5 μM PKA. […] Zip4T is also phosphorylated, but at a slower rate, with full phosphorylation achieved in 30 minutes in this assay. In this assay, the difference in cpm recovered between the Zip4 peptides and PL919Y was due to the difference in recovery of these peptides on P81 paper; however, a plateau was taken to indicate full phosphorylation.
# (§1) A second set of timecourses of phosphorylation was performed on Zip4S using PKA and Ca^2+/Calmodulin-dependent Protein Kinase (CaMKII), together with positive and negative controls for CaMKII (used to confirm that the crude preparation of CaMKII had the expected characteristics of that enzyme). PKA phosphorylation was performed in 50 mM histidine/HCl (pH 7.0), 5 mM MgSO4, 5 mM NaF, 0.05 mM EGTA, 120 mM KCl with 0.2 mM ATP (39.72 cpm/pmol ^32P-ATP) and 0.25 μM PKA. CaMKII phosphorylation was performed in 50 mM histidine/HCl (pH 7.0), 5 mM MgSO4, 5 mM NaF, 120 mM KCl, 0.5 mM Ca^2+, 0.037 mg/ml calmodulin with 0.2 mM ATP (39.72 cpm/pmol ^32P-ATP) and 10% crude CaMKII. In the Ca^2+-free experiment, Ca^2+ was replaced by 0.05 mM EGTA. […] Such specificity of a modification site included in a polypeptide comprising a coiled-coil is critical for use of the invention in an intracellular environment.
# [3] = test system: Ca2+/Calmodulin-dependent Protein Kinase (CaMKII); assay: Timecourse of phosphorylation by CaMKII (32P-ATP); assay type: biochemical; conditions: 10% crude CaMKII, 0.5 mM Ca2+, 0.2 mM ATP
# Method: as §1
# partner peptide = assay: FRET between fluorescein- and rhodamine-labeled coiled-coil peptides (association); assay type: binding; conditions: emission at 516 nm
# Method: Peptides were then labeled using a method adapted from one known in the art (Hermanson, 1997, Bioconjugate Techniques, Academic Press). 20 mM fluorescein iodoacetamide (FAM) in DMSO and 0.23 mM peptide in 20 mM TES buffer, pH 7.0 were prepared. These were mixed in a molar ratio of 0.9:1 (peptide:label) and incubated at 4° C. in the dark for a minimum of 2 hours. Initially, this method was also applied to labelling with rhodamine maleimide at a ratio of 0.9:2; however, in other experiments, good labelling has been obtained using rhodamine iodoacetamide at a ratio of 0.9:1. Labelling was assessed by reverse phase HPLC (C18 column; solvent A: H2O/0.1% TFA; solvent B: acetonitrile/0.1% TFA) and MALDI-TOF mass spectrometry.
# This was accompanied by an increase in fluorescence detected in the rhodamine emission region (not shown).
# (§2) Fluorescence was used to report on the phosphorylation status of these peptides (FIG. 13). […] No loss of FRET was observed on addition of PKA in the absence of ATP (data not shown).
# PKA [4] = assay: FRET report of phosphorylation of labeled peptides by PKA; assay type: biochemical; conditions: Zip4SF with Zip4SR, ATP present
# Method: Donor and acceptor fluorophore-labeled polypeptides comprising coiled-coils (molar equivalents of fluorophore-labeled polypeptide or molar excess of acceptor-labeled polypeptide) are first mixed (if the two coiled-coils are present on separate polypeptides). Samples are analyzed in a fluorimeter using excitation wavelengths relevant to the donor fluorescent moiety and emission wavelengths relevant to both the donor and acceptor moieties. […] Typically, measurements are performed at 0–37° C. as a function of time following the addition of the modifying enzyme (and, optionally, a modulator or candidate modulator of function for that enzyme, as described below) to the system in 50 mM histidine pH 7.0, 120 mM KCl, 5 mM MgSO4, 5 mM NaF, 0.05 mM EGTA and 0.2 mM ATP. The assay may be performed at a higher temperature if that temperature is compatible with the enzyme(s) under study.
# as §2
# Calculation of the ratio of fluorescence output is important, particularly for in vivo applications, thereby avoiding error due to high local concentrations of reporter in the system and enhancing the ability to observe meaningful change.
# [5] = biological target: the molecule itself; assay: circular dichroism, self-association
# Zip4SF = biological target: T1, Zip4SF; assay: FRET, emission spectra
molecule,measurement,setting,value
"R MKQLEDQ VRRLRRK TYHLENE VACLKKL VGERAAK (RMKQLEDQVRRLRRKTYHLENEVACLKKLVGERAAK) [Zip4T, 29]",relative thermostability (thermal denaturation by CD),[1]; same conditions as Zip3,more stable than was Zip4S
same,"phosphorylation by PKA (substrate quality, rate)",PKA [2]; 0.5 μM PKA,slower rate
same,time to full phosphorylation by PKA,PKA [2]; 0.5 μM PKA,30 min
"R MKQLEDQ VRRLRRK SYHLENE VACLKKL VGERAAK (RMKQLEDQVRRLRRKSYHLENEVACLKKLVGERAAK) [Zip4S, 28]",phosphorylation by PKA (extent),PKA [2]; 0.25 μM PKA,complete phosphorylation
same,"phosphorylation by PKA (substrate quality, rate)",PKA [2]; 0.5 μM PKA,good substrate
same,phosphorylation by CaMKII,[3],unable to phosphorylate
Zip4SP: enzymatically phosphorylated Zip4S (RMKQLEDQVRRLRRKSYHLENEVACLKKLVGERAAK; also: enzymatically phosphorylated (site not given here)),folding state in thermal melting/denaturation (ellipticity at 222 nm),[1]; from starting temperature of 1° C.,unfolded polypeptide in solution
Zip4SF: Zip4S labeled with fluorescein (FRET donor) (RMKQLEDQVRRLRRKSYHLENEVACLKKLVGERAAK; also: labeled with fluorescein (site not given here)),FRET upon addition of Zip4SR,partner peptide,loss of emission at 516 nm
same,emission at 516 nm on addition of PKA (loss of FRET),PKA [4],returned to above the level produced by Zip4SF alone
B1,binding result,[5],binds
B2,binding result,Zip4SF,binds
B3,binding result,[5],binds
